Experiment: gradient 5% acetonitrile 3 min, to 50% in 2 min, to 85% in 15 min, held 3 min, 100 µL/min
Details: column: Zorbax Extend-C18 2.1 x 50 mm; eluents: water / acetonitrile, 0.1% formic acid
Method in brief: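 Retention time was recorded from adduct peaks, which were picked computationally and each inspected manually. Pure standards ran in mixtures of ~100 molecules on HPLC coupled to a quadrupole time-of-flight mass spectrometer, in positive and negative ionization mode, through a Zorbax Extend-C18 column (2.1 × 50 mm, 1.8 μm) at 100 μL/min. Eluents were water and acetonitrile, each with 0.1% formic acid.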

Compound	RP-LC retention time [s]
Cc1ccc(-c2cc3c4nnc(SCC(=O)Nc5cccc(C(F)(F)F)c5)n4ccn3n2)cc1	1040
COc1cccc(CNC(=O)N2CCCC2c2cc(C(C)C)on2)c1 (stereo not drawn)	832
Cn1c2c(c(=O)n3ncc(C(=O)N4CCN(c5ccccn5)CC4)c13)CN(Cc1ccccc1)CC2	602
CCc1nc(-c2cc(S(=O)(=O)N3CCC(C(=O)N(CC)CC)CC3)c(C)s2)no1	960
COc1ccc(NC(=O)Cn2cnc3nc(N4CCC(C)CC4)ncc3c2=O)cc1Cl	834
Cc1ccc(C(=O)Nc2nc(-c3ccc4c(c3)NC(=O)C(C)O4)c(C)s2)cc1 (stereo not drawn)	1010
Cc1cccc(-c2noc(C3CCCN3C(=O)Nc3ccccc3Cl)n2)c1 (stereo not drawn)	606
Cc1cc(NC(=O)C2CCN(C(=O)c3cc(-c4ccc5c(c4)OCO5)n[nH]3)CC2)no1	671
COc1ccc2nc(C(=O)NCc3cccc(F)c3)cn2n1	778
COc1ccc(NC(=O)N2CCC(c3nc(C(=O)N(C)C)c(C)o3)CC2)c(OC)c1	635
CCOc1ccc2nc(C(=O)NCc3ccccc3Br)cn2n1	947
CC(=O)O[C@@H]1CC[C@@]2(C)[C@H](C1)[C@H](OC(C)=O)C[C@@H]1[C@@H]2C[C@H]2[C@@H]3CN4C[C@H](C)CC[C@H]4[C@H](C)[C@H]3CC[C@@]12O	716
Cc1ccc2c(c1)N(CC(=O)NC1CC1)C(=O)C(C)O2 (stereo not drawn)	738
CCOc1ccc(CNC(=O)c2cn3c(n2)COCC3)cc1	614
Cc1ccc(-c2nc3ccccn3c2Nc2ccccc2C)cc1	731
Cc1cccc(-c2nnc(CC(=O)NC3CCCCC3)o2)c1	817
Cc1ccccc1OCC(=O)N1CCN(c2nc(CN3CCOCC3)cs2)CC1	653
CNC(=O)c1cc(Nc2ccc3nc(Nc4ccc(Cl)c(C(F)(F)F)c4)[nH]c3c2)ccn1	631
COc1cccc(-c2cc3n(n2)CCCN(C(=O)Cc2ccsc2)C3)c1	587
O=C1NCCCCCCN(C(=O)Nc2ccc3c(c2)OCCO3)[C@H]2CCCC[C@@H]12	808
CC1CCCN(c2ccn3c(=O)n(CC(=O)N(C)c4ccccc4)nc3n2)C1 (stereo not drawn)	742
COC(=O)c1ccc2c(=O)n(-c3ccccc3)c(N3CCCC3)nc2c1	908

Compound	RP-LC retention time [s]
CCc1nc(-c2cc(S(=O)(=O)N3CCC(C(=O)NC4CCCCCC4)CC3)c(C)s2)no1	1070
COc1ccc(NC(=O)CC2=C3CCCCC3NC2=O)cn1 (stereo not drawn)	640
Cc1cc2[nH]c(C(=O)NCc3ccc(N4CCOCC4)cc3)c(CN3CCCC3)c2s1	660
Cc1cc(NC(=O)c2cccc(NS(=O)(=O)c3ccc(F)cc3)c2)no1	736
COCc1nc2cccnc2n1C1CCN(C(=O)Nc2ccc(Cl)cc2)CC1	744
COC1C(=O)N(c2cccc(F)c2)C12CCN(C(=O)Nc1ccccc1F)CC2 (stereo not drawn)	890
CCC(=O)Nc1ccc(CCc2nc3ccc(C(=O)NC4CCCCC4)cc3[nH]2)cc1	647
O=C(NCCn1ncccc1=O)c1cccc(C(F)(F)F)c1	646
Cc1ccc(-c2noc(-c3sccc3NC(=O)c3ccnn3C)n2)cc1	1380
COc1ccc(NC(=O)N2CCN(c3cc(-n4nc(C)cc4C)ncn3)CC2)cc1Cl	852
COc1ccc(-c2noc(C3CCCN3C(=O)Nc3cc(Cl)ccc3OC)n2)cc1 (stereo not drawn)	1130
Cc1ccc(S(=O)(=O)CCc2noc(-c3ccc4c(c3)OCO4)n2)cc1	931
O=S(=O)(NCc1nc(-c2ccc(-c3csc(C4CC4)n3)cc2)no1)c1ccc(F)cc1	1080
COc1ccc2[nH]cc(CN3CCC([C@H]4[C@@H](OC)C(=O)N4C(C)C)CC3)c2c1	623
CCn1c(-c2cccc(C(=O)NCc3cccs3)c2)nc2cccnc21	733
CCOC(=O)CNC(=O)NCC(c1cccnc1)c1c[nH]c2ccccc12 (stereo not drawn)	598
CCCCN(CC)S(=O)(=O)c1cc(-c2nnc(C)o2)co1	869
O=C(CC1CCN(C(=O)c2ccc3oc(-c4ccccc4)nc3c2)CC1)NCCN1CCOCC1	630
Nc1nc2c(cnn2CCc2ccccc2)c2nc(-c3ccco3)nn12	880
CCC1CN2C=Nc3oc(C)c(C(=O)Nc4cccc(Cl)c4)c3C2=N1 (stereo not drawn)	695
Cc1ccc(C(=O)N2CCCC(COc3ccc(C(=O)NC(C)C)cc3)C2)cc1C (stereo not drawn)	931
CCOc1ccc(-n2nnc(-c3nc(C)c(C(=O)N4CCC(C(N)=O)CC4)s3)c2C)cc1	719

Compound	RP-LC retention time [s]
CCOCCCNC(=O)C1CCN(c2nnc3cccc(C)n23)CC1	593
Cc1noc2nc(CCC(=O)NCCCN3CCc4ccccc4C3)nc(N3CCCCC3)c12	670
Cc1ccc(S(=O)(=O)CC(=O)Nc2nc(-c3cccc([N+](=O)[O-])c3)cs2)cc1	993
Cn1c(C(=O)NCc2cc(F)ccc2F)cc2ccncc21	622
CCn1ccc2sc(C)c(C(=O)NCCCN3CCCC3=O)c2c1=O	594
Cc1cc(C)cc(N2CCC(NC(=O)c3ccc(C#N)cc3)C2=O)c1 (stereo not drawn)	854
O=c1oc2cc(O)ccc2cc1-c1cc(F)cc(F)c1	908
Cc1ccc(Cl)cc1NC(=O)Cn1ncc2c(c1=O)N(CC1CC1)C(=O)CS2	860
CCN(CC)CCOc1ccc(/C(=C(\Cl)c2ccccc2)c2ccccc2)cc1	996
Cc1ccc(-c2cc(C(F)(F)F)on2)cc1S(=O)(=O)N1CCC(C)CC1	1280
COc1ccc(Cl)cc1NC(=O)c1cc(C)n2nc(C)cc2n1	1160
CCN(CCNC(=O)C1CCc2nc(N3CCOCC3)ncc2C1)c1ccccc1 (stereo not drawn)	591
O=C(NCc1ccccn1)c1c(-c2ccccc2)nnc2ccccc12	609
CC(C)c1nc(-c2ccc(C(=O)N3CCN(c4nc5cccnc5o4)CC3)cc2)no1	828
COc1ccc(COc2cc3oc(=O)c4cc(C(C)O)ccc4c3cc2OC)cc1 (stereo not drawn)	942
O=C(Nc1nnc(SCc2nnc(-c3ccc4c(c3)OCO4)o2)s1)c1ccccc1	857
c1ccc(-c2nc3cc(-c4noc(C5CCOC5)n4)ccc3o2)cc1 (stereo not drawn)	1100
CCc1nc(-c2ccc(-c3noc(CNS(=O)(=O)c4ccc(Cl)cc4)n3)cc2)cs1	1110
CCNc1cc(-n2ccnc2)ncn1	541
CCCCN(Cc1ccco1)C(=O)C1CCCN(c2ncnc3c2nc2n3CCCCC2)C1 (stereo not drawn)	949
CCOC(=O)C1CCCN(Cc2nc3nc(C)cc(N4CCOCC4)n3n2)C1 (stereo not drawn)	576
O=C(Nc1ccccc1F)N1CCC2(CCC2N2CCOCC2)CC1 (stereo not drawn)	554

Compound	RP-LC retention time [s]
CCc1ccc(N2C(=O)CN(CCc3ccccc3F)[C@H]3CS(=O)(=O)C[C@H]32)cc1	904
CC(C)CCN(C1CCOCC1)C1CCN(C(=O)Nc2cccc(F)c2)CC1	650
CCOC(=O)C1CCN(C(=O)c2ccc3c(c2)N(CC(=O)N2CCCC2)C(=O)CO3)CC1	678
Cc1ccccc1N1C(=O)CN(S(=O)(=O)c2ccccc2)CC1(C)C(=O)NCCC(C)C (stereo not drawn)	970
O=C(O)Cn1nnc(-c2cc(N3CCC(Oc4cc(F)ccc4Br)CC3)no2)n1	1000
CC1CCCN(CCCNC(=O)Cn2c3ccccc3c3cnn(C)c(=O)c32)C1 (stereo not drawn)	612
COc1cc(C(C)=O)ccc1OCC(O)CN1CCN(c2ccc(C)c(Cl)c2)CC1 (stereo not drawn)	585
CCCNC(=O)C1CCN(c2ccc(SCC(=O)Nc3cccc(C(F)(F)F)c3)nn2)CC1	723
COc1ccc(C2(C(=O)N3CCC(Oc4ccccc4-c4nc(C)no4)C3)CC2)cc1 (stereo not drawn)	880
Cc1nn(-c2nc(-c3ccc(F)cc3)cs2)c(C)c1CC(=O)N1CCCC1	1030
Cc1nccn1CC(=O)N1C[C@@H](C)[C@H](c2nc(-c3ccncc3)no2)C1	569
O=C(O)c1cc(-c2ccccc2F)n[nH]1	630
CCC(=O)Nc1ccc(-n2cnc(C(=O)N3CCC4(CC3)OCCO4)c2)nc1	616
O=C(C1CC1)N1CCc2sc(S(=O)(=O)Nc3ccc(F)cc3)cc2C1	799
COc1ccc(NC(=O)N2C[C@@H](F)C[C@H]2C(=O)N2CCc3ccccc3C2)c(OC)c1	790
N#Cc1cnc2nc(-c3ccccc3)nn2c1N	663
COc1ccc(S(=O)(=O)N2CC3CN(C(=O)C4CCCO4)CC(C2)O3)cc1 (stereo not drawn)	659
Cc1ccc(NC(=O)N2CCCCC2)cc1[N+](=O)[O-]	916
COc1cccc(C(=O)N2C[C@@H]3C[C@H](NC(=O)c4cccnc4)[C@H]2C3)c1OC	619
CC(=O)Nc1ccc2c(c1)CN(C(=O)Cc1ccccc1F)C(C(=O)N(C)C)C2 (stereo not drawn)	1080
COc1ccc(S(=O)(=O)N2CCCC(C(=O)NCCCO)C2)cc1C (stereo not drawn)	709
Cc1ccc2c(Nc3ccc(S(N)(=O)=O)cc3)c(C(=O)N3CCC(C)CC3)cnc2n1	582

Reference: the METLIN SMRT retention time set (Domingo-Almenara et al. 2019)
